Results: the CombiSolv-Exp solvation set (Vermeire and Green 2021)

Experiment: solvent given as SMILES

COC
Details	solvation free energy, 298 K [kcal/mol]
in Brc1ccccc1	-2.1
in CC(C)(C)O	-2.25
in CC(C)CCO	-1.99
in CC(C)CO	-2.1
in CC(C)O	-2.13
in CCC(C)(C)O	-2.22
in CCC(C)CO	-2.05
in CCC(C)O	-2.1
in CCC(O)CC	-2.18
in CCCC(C)O	-2.05
in CCCCCC	-1.79
in CCCCCCCCO	-1.87
in CCCCCO	-1.98
in CCCCO	-2.05
in CCCO	-2.1
in CN(C)C=O	-2.13
in CO	-2.31
in COC(C)=O	-2.33
in Cc1ccc(C)cc1	-2.03
in Cc1cccc(C)c1	-2.05
in Cc1ccccc1C	-2.04
in Clc1ccccc1	-2.18
in Ic1ccccc1	-2.03
in O	-1.91

CCCCOC(C)=O
Details	solvation free energy, 298 K [kcal/mol]
in CC(=O)N(C)C	-5.24
in CC(C)CCCC(C)CCCC(C)CCCCC(C)CCCC(C)CCCC(C)C	-4.52
in CCCCC(CC)COC(=O)CCCCC(=O)OCC(CC)CCCC	-4.89
in CCCCCC	-4.94
in CCCCCCC	-4.92
in CCCCCCCC	-4.9
in CCCCCCCCC=CCCCCCCCC(=O)OCC(COC(=O)CCCCCCCC=CCCCCCCCC)OC(=O)CCCCCCCC=CCCCCCCCC	-5.07
in CCCCCCCCCC	-4.75
in CCCCCCCCCCCCCCCC	-4.52
in CCCCCCCCO	-5.01
in CCCCN(C=O)CCCC	-5.24
in CNC(C)=O	-5.14
in CO	-5.36
in NC=O	-4.07
in O	-2.65
in [2H]O[2H]	-2.76

CC1=CCC(C(C)C)c2cc(C)ccc21 (centres undefined)
Details	solvation free energy, 298 K [kcal/mol]
in O	-1.12

CCCCCCC(C)=O
Details	solvation free energy, 298 K [kcal/mol]
in C1COCCO1	-6.83
in CCCCCCC	-5.68
in CN(C)C=O	-6.23
in ClC(Cl)(Cl)Cl	-6.7
in NC=O	-5.06
in O	-2.92

FC(F)(F)C(F)(F)C(F)(F)C(F)(F)C(F)(F)C(F)(F)C(F)(F)F
Details	solvation free energy, 298 K [kcal/mol]
in CCCCCCC	-2.35
in CCCCO	-1.29
in CCCO	-1.24
in S=C=S	-0.45

CCOC
Details	solvation free energy, 298 K [kcal/mol]
in O	-2.1

OCC1OC(O)C(O)C(O)C1O (centres undefined)
Details	solvation free energy, 298 K [kcal/mol]
in O	-25.5

Clc1cc(-c2cc(Cl)c(Cl)c(Cl)c2Cl)c(Cl)c(Cl)c1Cl
Details	solvation free energy, 298 K [kcal/mol]
in CCCCCCCCO	-15.2
in O	-3.77

CCC(=O)CC
Details	solvation free energy, 298 K [kcal/mol]
in CC(C)CCCC(C)CCCC(C)CCCCC(C)CCCC(C)CCCC(C)C	-3.73
in CCCCCCC	-4.04
in CCCCCCCCC=CCCCCCCCC(=O)OCC(COC(=O)CCCCCCCC=CCCCCCCCC)OC(=O)CCCCCCCC=CCCCCCCCC	-4.31
in CCCCCCCCCCCCCCCC	-3.73
in CCCCCCCCO	-4.34
in CN1CCCC1=O	-4.76
in CO	-4.96
in O	-3.33
in O=CN1CCOCC1	-4.45
in [2H]O[2H]	-3.27

CCBr
Details	solvation free energy, 298 K [kcal/mol]
in Brc1cccc2ccccc12	-3.23
in C=CCCCCCCCCCCCCCC	-2.91
in CC(=O)N(C)C	-3.44
in CC(=O)OCc1ccccc1	-3.32
in CC(C)CC(C)(C)C	-2.95
in CCC(C)=O	-3.53
in CCCCCC	-3.14
in CCCCCCC	-3.04
in CCCCCCCC	-2.99
in CCCCCCCCO	-2.88
in CCCCCl	-3.51
in CCCCO	-3.03
in CCO	-3.03
in CCOC(C)=O	-3.53
in CN(C)C=O	-3.22
in Cc1ccc(C)cc1	-3.41
in ClC(Cl)(Cl)Cl	-3.45
in ClC(Cl)Cl	-3.77
in ClCCCl	-3.6
in Clc1ccccc1	-3.51
in N#Cc1ccccc1	-3.41
in O	-0.74
in O=C1CCCCC1	-3.55
in c1ccc2ncccc2c1	-3.31

CC(C)C(C)(C)C
Details	solvation free energy, 298 K [kcal/mol]
in C=CCCCCCCCCCCCCCC	-3.77
in CN1CCCC1=O	-2.78
in O	2.62

C1=CCCCCC1
Details	solvation free energy, 298 K [kcal/mol]
in CN1CCCC1=O	-4.22
in CN(C)C=O	-4.23
in O	0.7

COC(=O)c1ccc(O)cc1
Details	solvation free energy, 298 K [kcal/mol]
in C1CCOC1	-12.5
in C1COCCO1	-12.3
in CC(C)(C)O	-12.2
in CC(C)=O	-12.3
in CC(C)CO	-12
in CCC(C)O	-12.2
in CCCCCC	-7.42
in CCCCCCCCCCO	-11.4
in CCCCCCO	-11.9
in CCCCCO	-12
in CCCCO	-12.1
in CCCCOC(C)=O	-11.8
in CCCCOCCCC	-10.7
in CCCO	-12.2
in CCOC(C)=O	-11.9
in CCOCC	-11.7
in CNC=O	-12.7
in COC(C)(C)C	-11.8
in NC=O	-12.1
in O	-9.35

CNC
Details	solvation free energy, 298 K [kcal/mol]
in CCCCCC	-2.48
in CCCCCCCCCC	-2.31
in CCCCCCCCO	-2.73
in CCCO	-2.99
in CCO	-3.27
in CN(C)C=O	-2.88
in CO	-3.51
in ClC(Cl)(Cl)Cl	-2.88
in N#Cc1ccccc1	-2.8
in O	-4.3

COCCO
Details	solvation free energy, 298 K [kcal/mol]
in C1CCOC1	-5.45
in COC(C)=O	-5.46
in O	-6.77

CCCCCI
Details	solvation free energy, 298 K [kcal/mol]
in O	-0.14

C=CCCCCCCC
Details	solvation free energy, 298 K [kcal/mol]
in CCCCCCCCO	-5.21
in O	2.06

CCCCS
Details	solvation free energy, 298 K [kcal/mol]
in O	-0.88

CC1CCC(C)(C)C1 (centres undefined)
Details	solvation free energy, 298 K [kcal/mol]
in O	2.47

c1ccc2nc3ccccc3cc2c1
Details	solvation free energy, 298 K [kcal/mol]
in O	-6.75
